Patent US20230220105A1, “TUMOR ACTIVATED T CELL ENGAGERS AND METHODS OF USE THEREOF” (Janux Therapeutics, Inc., priority 2019, published 2023)

Legend:
MAGE-A3 TCR (TCR-1) [1] = assay: Kinetic binding of TCR to peptides (Octet BLI); details: Table 3; Ala mutants of Peptide-5 and controls
Procedure: BLI based kinetic binding of TCR to peptides was measured using a ForteBio Octet RED96 instrument. Biotinylated peptides were first directly captured on streptavidin biosensors. Sensors were quenched using excess biocytin and then baselined in buffer. A dilution series of TCR was made and associated onto the peptide loaded biosensor. Association and dissociation signals were monitored in real-time. Signals were fit to a 1:1 binding model in order to derive binding constants, kon and koff, as well as KD.

[2] = tested on: TCR-1 binding to MAGE-A3 pMHC; assay: Inhibition of kinetic binding of TCR to its cognate pMHC (BLI); details: Table 3
Procedure: First, biotinylated pMHC was captured on streptavidin biosensors. Sensors were quenched using excess biocytin and then baselined in buffer. Inhibitory peptide was titrated in a two fold dilution series starting from 100 uM and pre-incubated with a constant concentration of 50 nM TCR. Peptide and TCR mixtures were then associated onto the pMHC loaded biosensor. Zero concentration of inhibitory peptide or zero concentration of TCR were used as controls. Association and dissociation signals were monitored in real-time. The maximal association signal was normalized from 100% (0 uM inhibitory peptide control) to 0% (0 nM TCR control) and plotted versus log-scale inhibitory peptide concentration.

MAGE-A3 TCR (TCR-1) [3] = assay: Equilibrium binding of TCR to peptides (ELISA)
Procedure: Peptide binding was also examined in an ELISA format. Biotinylated peptides were captured on neutravidin coated plates. TCR was then prepared in a half-log dilution series starting from 10 uM and titrated onto the peptide captured plates. […] The concentration of TCR required to observe half maximal binding signal (EC50) was then calculated using Graphpad Prism.

Octet BLI Binds TCR (MAGE-A3 TCR (TCR-1) [1]) | Octet BLI Competes at 100 uM [2] | EC50 (MAGE-A3 TCR (TCR-1) [3]; Table 3) [µM] | binding to TCR-1, Ala scan and control peptides (MAGE-A3 TCR (TCR-1) [3]; relative to Peptide-5) | EC50 (MAGE-A3 TCR (TCR-1) [3]; Table 2, TCR-1 titrated on captured peptide) [µM] | Molecule
Yes | Yes |  |  |  | CC(C)[C@H](NC(=O)CNC(=O)CN)C(=O)N[C@@H](CO)C(=O)N[C@H]1CSSC[C@@H](C(=O)N[C@@H](C)C(=O)N[C@H](C(=O)NCC(=O)NCC(=O)NCC(=O)NCC(=O)N[C@@H](CO)C(=O)NCCOCCOCCOCCOCCC(=O)N[C@@H](CCCCNC(=O)CCCC[C@@H]2SC[C@@H]3NC(=O)N[C@@H]32)C(N)=O)[C@@H](C)O)NC(=O)[C@H](Cc2ccccc2)NC(=O)[C@H](C)NC(=O)[C@H](CCC(=O)O)NC(=O)[C@H](CC(=O)O)NC(=O)[C@H](Cc2ccc(O)cc2)NC(=O)[C@H](C(C)C)NC(=O)[C@H](CC(=O)O)NC(=O)[C@H](CCCCN)NC1=O [Peptide-32]
No |  | > 10 | lack of binding |  | EVDPIGHLY [Peptide-34, MAGE-A3 antigen peptide, linear control absent MHC presentation, reference compound]
No |  |  |  |  | CC(C)[C@H](NC(=O)CNC(=O)CN)C(=O)N[C@@H](CO)C(=O)N[C@H]1CSSC[C@@H](C(=O)N[C@@H](Cc2c[nH]c3ccccc23)C(=O)N[C@H](C(=O)NCC(=O)NCC(=O)NCC(=O)NCC(=O)N[C@@H](CO)C(=O)NCCOCCOCCOCCOCCC(=O)N[C@@H](CCCCNC(=O)CCCC[C@@H]2SC[C@@H]3NC(=O)N[C@@H]32)C(N)=O)[C@@H](C)O)NC(=O)[C@H](Cc2ccccc2)NC(=O)[C@H](C)NC(=O)[C@H](C)NC(=O)[C@H](CC(=O)O)NC(=O)[C@H](Cc2ccc(O)cc2)NC(=O)[C@H](C(C)C)NC(=O)[C@H](CC(=O)O)NC(=O)[C@H](CCCCN)NC1=O [Peptide-29]
Yes | Yes |  |  |  | CC(C)[C@H](NC(=O)CNC(=O)CN)C(=O)N[C@@H](CO)C(=O)N[C@H]1CSSC[C@@H](C(=O)N[C@@H](Cc2c[nH]c3ccccc23)C(=O)N[C@H](C(=O)NCC(=O)NCC(=O)NCC(=O)NCC(=O)N[C@@H](CO)C(=O)NCCOCCOCCOCCOCCC(=O)N[C@@H](CCCCNC(=O)CCCC[C@@H]2SC[C@@H]3NC(=O)N[C@@H]32)C(N)=O)[C@@H](C)O)NC(=O)[C@H](Cc2ccccc2)NC(=O)[C@H](C)NC(=O)[C@H](CCC(=O)O)NC(=O)[C@H](C)NC(=O)[C@H](Cc2ccc(O)cc2)NC(=O)[C@H](C(C)C)NC(=O)[C@H](CC(=O)O)NC(=O)[C@H](CCCCN)NC1=O [Peptide-28]
No |  | > 10 |  |  | ESDPIVAQY [Peptide-35, Titin peptide, linear control absent MHC presentation, reference compound]
No |  | > 10 |  |  | CC(C)[C@H](NC(=O)CNC(=O)CN)C(=O)N[C@@H](CO)C(=O)N[C@H]1CSSC[C@@H](C(=O)N[C@@H](Cc2c[nH]c3ccccc23)C(=O)N[C@H](C(=O)NCC(=O)NCC(=O)NCC(=O)NCC(=O)N[C@@H](CO)C(=O)NCCOCCOCCOCCOCCC(=O)N[C@@H](CCCCNC(=O)CCCC[C@@H]2SC[C@@H]3NC(=O)N[C@@H]32)C(N)=O)[C@@H](C)O)NC(=O)[C@H](C)NC(=O)[C@H](C)NC(=O)[C@H](CCC(=O)O)NC(=O)[C@H](CC(=O)O)NC(=O)[C@H](Cc2ccc(O)cc2)NC(=O)[C@H](C(C)C)NC(=O)[C@H](CC(=O)O)NC(=O)[C@H](CCCCN)NC1=O [Peptide-30]
Yes | Yes |  |  |  | CC(C)[C@H](NC(=O)CNC(=O)CN)C(=O)N[C@@H](CO)C(=O)N[C@H]1CSSC[C@@H](C(=O)N[C@@H](Cc2c[nH]c3ccccc23)C(=O)N[C@@H](C)C(=O)NCC(=O)NCC(=O)NCC(=O)NCC(=O)N[C@@H](CO)C(=O)NCCOCCOCCOCCOCCC(=O)N[C@@H](CCCCNC(=O)CCCC[C@@H]2SC[C@@H]3NC(=O)N[C@@H]32)C(N)=O)NC(=O)[C@H](Cc2ccccc2)NC(=O)[C@H](C)NC(=O)[C@H](CCC(=O)O)NC(=O)[C@H](CC(=O)O)NC(=O)[C@H](Cc2ccc(O)cc2)NC(=O)[C@H](C(C)C)NC(=O)[C@H](CC(=O)O)NC(=O)[C@H](CCCCN)NC1=O [Peptide-33]
Weak |  | > 10 |  |  | CC(C)[C@H](NC(=O)CNC(=O)CN)C(=O)N[C@@H](CO)C(=O)N[C@@H](CS)C(=O)N[C@@H](CCCCN)C(=O)N[C@@H](CC(=O)O)C(=O)N[C@H](C(=O)N[C@@H](Cc1ccc(O)cc1)C(=O)N[C@@H](CC(=O)O)C(=O)N[C@@H](CCC(=O)O)C(=O)N[C@@H](C)C(=O)N[C@@H](Cc1ccccc1)C(=O)N[C@@H](C)C(=O)N[C@@H](Cc1c[nH]c2ccccc12)C(=O)N[C@H](C(=O)NCC(=O)NCC(=O)NCC(=O)NCC(=O)N[C@@H](CO)C(=O)NCCOCCOCCOCCOCCC(=O)N[C@@H](CCCCNC(=O)CCCC[C@@H]1SC[C@@H]2NC(=O)N[C@@H]21)C(N)=O)[C@@H](C)O)C(C)C [Peptide-31]

Second part, the molecule before the results:

Molecule | Octet BLI Binds TCR (MAGE-A3 TCR (TCR-1) [1]) | Octet BLI Competes at 100 uM [2] | EC50 (MAGE-A3 TCR (TCR-1) [3]; Table 3) [µM] | binding to TCR-1, Ala scan and control peptides (MAGE-A3 TCR (TCR-1) [3]; relative to Peptide-5) | EC50 (MAGE-A3 TCR (TCR-1) [3]; Table 2, TCR-1 titrated on captured peptide) [µM]
CC(C)[C@H](NC(=O)CNC(=O)CN)C(=O)N[C@@H](CO)C(=O)N[C@@H](C)C(=O)N[C@@H](CCCCN)C(=O)N[C@@H](CC(=O)O)C(=O)N[C@H](C(=O)N[C@@H](Cc1ccc(O)cc1)C(=O)N[C@@H](CC(=O)O)C(=O)N[C@@H](CCC(=O)O)C(=O)N[C@@H](C)C(=O)N[C@@H](Cc1ccccc1)C(=O)N[C@@H](CS)C(=O)N[C@@H](Cc1c[nH]c2ccccc12)C(=O)N[C@H](C(=O)NCC(=O)NCC(=O)NCC(=O)NCC(=O)N[C@@H](CO)C(=O)NCCOCCOCCOCCOCCC(=O)N[C@@H](CCCCNC(=O)CCCC[C@@H]1SC[C@@H]2NC(=O)N[C@@H]21)C(N)=O)[C@@H](C)O)C(C)C [Peptide-23] | Yes | Yes | > 10 |  | 
CC(C)[C@H](NC(=O)CNC(=O)CN)C(=O)N[C@@H](CO)C(=O)N[C@H]1CSSC[C@@H](C(=O)N[C@@H](Cc2c[nH]c3ccccc23)C(=O)N[C@H](C(=O)NCC(=O)NCC(=O)NCC(=O)NCC(=O)N[C@@H](CO)C(=O)NCCOCCOCCOCCOCCC(=O)N[C@@H](CCCCNC(=O)CCCC[C@@H]2SC[C@@H]3NC(=O)N[C@@H]32)C(N)=O)[C@@H](C)O)NC(=O)[C@H](Cc2ccccc2)NC(=O)[C@H](C)NC(=O)[C@H](CCC(=O)O)NC(=O)[C@H](CC(=O)O)NC(=O)[C@H](Cc2ccc(O)cc2)NC(=O)[C@H](C(C)C)NC(=O)[C@H](C)NC(=O)[C@H](CCCCN)NC1=O [Peptide-25] | Weak |  |  |  | 
CC(C)[C@H](NC(=O)CNC(=O)CN)C(=O)N[C@@H](C)C(=O)N[C@H]1CSSC[C@@H](C(=O)N[C@@H](Cc2c[nH]c3ccccc23)C(=O)N[C@H](C(=O)NCC(=O)NCC(=O)NCC(=O)NCC(=O)N[C@@H](CO)C(=O)NCCOCCOCCOCCOCCC(=O)N[C@@H](CCCCNC(=O)CCCC[C@@H]2SC[C@@H]3NC(=O)N[C@@H]32)C(N)=O)[C@@H](C)O)NC(=O)[C@H](Cc2ccccc2)NC(=O)[C@H](C)NC(=O)[C@H](CCC(=O)O)NC(=O)[C@H](CC(=O)O)NC(=O)[C@H](Cc2ccc(O)cc2)NC(=O)[C@H](C(C)C)NC(=O)[C@H](CC(=O)O)NC(=O)[C@H](CCCCN)NC1=O [Peptide-22] | No |  |  |  | 
CC(C)[C@H](NC(=O)CNC(=O)CN)C(=O)N[C@@H](CO)C(=O)N[C@H]1CSSC[C@@H](C(=O)N[C@@H](Cc2c[nH]c3ccccc23)C(=O)N[C@H](C(=O)NCC(=O)NCC(=O)NCC(=O)NCC(=O)N[C@@H](CO)C(=O)NCCOCCOCCOCCOCCC(=O)N[C@@H](CCCCNC(=O)CCCC[C@@H]2SC[C@@H]3NC(=O)N[C@@H]32)C(N)=O)[C@@H](C)O)NC(=O)[C@H](Cc2ccccc2)NC(=O)[C@H](C)NC(=O)[C@H](CCC(=O)O)NC(=O)[C@H](CC(=O)O)NC(=O)[C@H](C)NC(=O)[C@H](C(C)C)NC(=O)[C@H](CC(=O)O)NC(=O)[C@H](CCCCN)NC1=O [Peptide-27] | No |  | > 10 |  | 
CC(C)[C@@H]1NC(=O)[C@H](CC(=O)O)NC(=O)[C@H](CCCCN)NC(=O)[C@@H](NC(=O)[C@H](CO)NC(=O)[C@H](C)NC(=O)CNC(=O)CN)CSSC[C@@H](C(=O)N[C@@H](Cc2c[nH]c3ccccc23)C(=O)N[C@H](C(=O)NCC(=O)NCC(=O)NCC(=O)NCC(=O)N[C@@H](CO)C(=O)NCCOCCOCCOCCOCCC(=O)N[C@@H](CCCCNC(=O)CCCC[C@@H]2SC[C@@H]3NC(=O)N[C@@H]32)C(N)=O)[C@@H](C)O)NC(=O)[C@H](Cc2ccccc2)NC(=O)[C@H](C)NC(=O)[C@H](CCC(=O)O)NC(=O)[C@H](CC(=O)O)NC(=O)[C@H](Cc2ccc(O)cc2)NC1=O [Peptide-21] | Yes | Yes |  |  | 
CC(C)[C@H](NC(=O)CNC(=O)CN)C(=O)N[C@@H](CO)C(=O)N[C@H]1CSSC[C@@H](C(=O)N[C@@H](Cc2c[nH]c3ccccc23)C(=O)N[C@H](C(=O)NCC(=O)NCC(=O)NCC(=O)NCC(=O)N[C@@H](CO)C(=O)NCCOCCOCCOCCOCCC(=O)N[C@@H](CCCCNC(=O)CCCC[C@@H]2SC[C@@H]3NC(=O)N[C@@H]32)C(N)=O)[C@@H](C)O)NC(=O)[C@H](Cc2ccccc2)NC(=O)[C@H](C)NC(=O)[C@H](CCC(=O)O)NC(=O)[C@H](CC(=O)O)NC(=O)[C@H](Cc2ccc(O)cc2)NC(=O)[C@H](C)NC(=O)[C@H](CC(=O)O)NC(=O)[C@H](CCCCN)NC1=O [Peptide-26] | No |  |  |  | 
CC(C)[C@H](NC(=O)CNC(=O)CN)C(=O)N[C@@H](CO)C(=O)N[C@H]1CSSC[C@@H](C(=O)N[C@@H](Cc2c[nH]c3ccccc23)C(=O)N[C@H](C(=O)NCC(=O)NCC(=O)NCC(=O)NCC(=O)N[C@@H](CO)C(=O)NCCOCCOCCOCCOCCC(=O)N[C@@H](CCCCNC(=O)CCCC[C@@H]2SC[C@@H]3NC(=O)N[C@@H]32)C(N)=O)[C@@H](C)O)NC(=O)[C@H](Cc2ccccc2)NC(=O)[C@H](C)NC(=O)[C@H](CCC(=O)O)NC(=O)[C@H](CC(=O)O)NC(=O)[C@H](Cc2ccc(O)cc2)NC(=O)[C@H](C(C)C)NC(=O)[C@H](CC(=O)O)NC(=O)[C@H](C)NC1=O [Peptide-24] | Yes | Yes |  |  | 
GGNQCWEVYDQEFCSL [Peptide-9] |  |  |  |  | 0.05
